According to ChEMBL document CHEMBL1201862, “PubChem BioAssay data set” (2004):
The source made the active and inactive calls. For most assays here, no stated cut-off is given here; in the data, actives have a measured EC50 and inactives only a lower limit.

Legend:
[1] = target: T1, Corticotropin-releasing factor receptor 2/Corticotropin-releasing factor-binding protein (Homo sapiens, UniProt P24387+Q13324); experiment: Dose Response confirmation of uHTS hits for small molecule antagonists of the CRF-binding protein and CRF-R2 receptor complex.; format: functional; details: read-out: IC50_Mean
T1 sequence (Q13324 whole entry): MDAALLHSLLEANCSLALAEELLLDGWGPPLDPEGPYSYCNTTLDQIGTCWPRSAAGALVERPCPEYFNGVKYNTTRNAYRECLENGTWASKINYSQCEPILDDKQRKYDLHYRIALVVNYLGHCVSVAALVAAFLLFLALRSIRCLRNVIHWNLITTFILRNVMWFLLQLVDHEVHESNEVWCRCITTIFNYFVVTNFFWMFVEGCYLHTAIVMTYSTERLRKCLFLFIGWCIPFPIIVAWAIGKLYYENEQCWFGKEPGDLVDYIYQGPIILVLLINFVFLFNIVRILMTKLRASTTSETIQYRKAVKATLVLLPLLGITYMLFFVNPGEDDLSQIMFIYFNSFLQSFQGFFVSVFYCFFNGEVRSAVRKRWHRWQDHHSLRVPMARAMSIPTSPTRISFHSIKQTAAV
T1 sequence (P24387 whole entry): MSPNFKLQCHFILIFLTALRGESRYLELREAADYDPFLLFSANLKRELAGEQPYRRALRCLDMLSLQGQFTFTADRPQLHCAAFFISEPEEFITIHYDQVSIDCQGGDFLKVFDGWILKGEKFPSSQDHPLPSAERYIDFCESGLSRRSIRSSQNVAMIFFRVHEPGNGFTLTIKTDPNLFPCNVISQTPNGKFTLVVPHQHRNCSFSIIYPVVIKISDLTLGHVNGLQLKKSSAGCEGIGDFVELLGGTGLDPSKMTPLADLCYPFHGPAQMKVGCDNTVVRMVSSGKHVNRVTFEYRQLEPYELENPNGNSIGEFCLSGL

[2] = target: T1, Corticotropin-releasing factor receptor 2/Corticotropin-releasing factor-binding protein; experiment: activators of CRF receptor 2 with binding protein – uHTS hits, confirmation (AID 602473); format: functional; details: read-out: EC50_Mean
[3] = target: T2, RNA-binding protein pos-1 (Caenorhabditis elegans, UniProt G5EF15); experiment: disruptors of C. elegans POS-1 RNA interaction – biochemical, fluorescence polarization, dose response (AID 1964);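 further: purified POS-1 fused to maltose binding protein made in E. coli; potency of compounds blocking POS-1 binding to fluorescent RNA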
T2 sequence (G5EF15 whole entry): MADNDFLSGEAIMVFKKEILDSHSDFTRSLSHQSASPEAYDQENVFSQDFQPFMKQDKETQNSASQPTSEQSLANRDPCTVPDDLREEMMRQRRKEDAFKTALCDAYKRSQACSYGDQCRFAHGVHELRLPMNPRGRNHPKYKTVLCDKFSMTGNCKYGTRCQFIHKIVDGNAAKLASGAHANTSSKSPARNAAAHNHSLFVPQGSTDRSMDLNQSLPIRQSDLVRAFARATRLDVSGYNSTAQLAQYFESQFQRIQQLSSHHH

[4] = target: T3, Zinc finger protein mex-5 (Caenorhabditis elegans, UniProt Q9XUB2); experiment: potency of MEX-5 RNA-binding blockers – biochemical, C. elegans, fluorescence polarization, dose response (AID 1960)
T3 sequence (Q9XUB2 whole entry): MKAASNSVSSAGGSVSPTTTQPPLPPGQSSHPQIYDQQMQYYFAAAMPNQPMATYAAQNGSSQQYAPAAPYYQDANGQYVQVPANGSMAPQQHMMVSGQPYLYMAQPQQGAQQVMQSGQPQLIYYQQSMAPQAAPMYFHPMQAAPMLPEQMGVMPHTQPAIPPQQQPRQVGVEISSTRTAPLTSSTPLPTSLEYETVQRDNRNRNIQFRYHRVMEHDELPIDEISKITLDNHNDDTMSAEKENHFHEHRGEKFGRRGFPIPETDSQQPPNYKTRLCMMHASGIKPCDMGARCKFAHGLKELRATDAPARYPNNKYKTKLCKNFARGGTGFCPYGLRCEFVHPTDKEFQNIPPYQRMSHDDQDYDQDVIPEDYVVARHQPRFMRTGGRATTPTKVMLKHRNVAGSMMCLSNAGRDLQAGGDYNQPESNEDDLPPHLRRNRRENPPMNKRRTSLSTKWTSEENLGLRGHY

[5] = target: T4, Protein RecA (Mycobacterium tuberculosis, UniProt P9WHJ3); experiment: Fluorescence Cell-Free Homogeneous Dose Retest to Identify Inhibitors of RecA-Intein Splicing Activity. [Related pubchem assays (depositor defined):AID2097, AID2223, AID489010, AID492950]; format: functional
T4 sequence (P9WHJ3 whole entry): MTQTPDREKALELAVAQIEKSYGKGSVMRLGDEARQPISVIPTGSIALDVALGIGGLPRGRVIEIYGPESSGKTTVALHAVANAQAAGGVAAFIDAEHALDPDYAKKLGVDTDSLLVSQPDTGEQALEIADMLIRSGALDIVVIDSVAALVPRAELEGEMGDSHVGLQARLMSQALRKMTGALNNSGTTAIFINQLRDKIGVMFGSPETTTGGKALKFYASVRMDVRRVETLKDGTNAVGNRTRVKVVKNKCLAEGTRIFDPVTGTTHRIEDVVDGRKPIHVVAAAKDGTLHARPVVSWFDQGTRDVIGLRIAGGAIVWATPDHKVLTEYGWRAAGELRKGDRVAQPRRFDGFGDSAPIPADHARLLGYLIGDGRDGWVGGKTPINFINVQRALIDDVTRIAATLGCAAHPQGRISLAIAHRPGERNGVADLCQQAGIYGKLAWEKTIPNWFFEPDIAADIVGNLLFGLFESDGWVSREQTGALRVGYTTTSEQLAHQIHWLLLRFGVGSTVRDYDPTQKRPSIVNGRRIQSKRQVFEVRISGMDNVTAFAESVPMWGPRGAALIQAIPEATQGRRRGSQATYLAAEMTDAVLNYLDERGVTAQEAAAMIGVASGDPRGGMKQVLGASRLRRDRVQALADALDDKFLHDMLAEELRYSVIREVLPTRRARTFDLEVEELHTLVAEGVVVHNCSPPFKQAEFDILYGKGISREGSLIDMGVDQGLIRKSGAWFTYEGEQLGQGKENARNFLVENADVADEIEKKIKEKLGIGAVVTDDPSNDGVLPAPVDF

[6] = target: T5, Replicative DNA helicase DnaB (Mycobacterium tuberculosis, UniProt P9WMR3); experiment: DnaB intein splicing inhibitors, dose response, biochemical, cell-free fluorescence (AID 449749); format: functional
T5 sequence (P9WMR3 whole entry): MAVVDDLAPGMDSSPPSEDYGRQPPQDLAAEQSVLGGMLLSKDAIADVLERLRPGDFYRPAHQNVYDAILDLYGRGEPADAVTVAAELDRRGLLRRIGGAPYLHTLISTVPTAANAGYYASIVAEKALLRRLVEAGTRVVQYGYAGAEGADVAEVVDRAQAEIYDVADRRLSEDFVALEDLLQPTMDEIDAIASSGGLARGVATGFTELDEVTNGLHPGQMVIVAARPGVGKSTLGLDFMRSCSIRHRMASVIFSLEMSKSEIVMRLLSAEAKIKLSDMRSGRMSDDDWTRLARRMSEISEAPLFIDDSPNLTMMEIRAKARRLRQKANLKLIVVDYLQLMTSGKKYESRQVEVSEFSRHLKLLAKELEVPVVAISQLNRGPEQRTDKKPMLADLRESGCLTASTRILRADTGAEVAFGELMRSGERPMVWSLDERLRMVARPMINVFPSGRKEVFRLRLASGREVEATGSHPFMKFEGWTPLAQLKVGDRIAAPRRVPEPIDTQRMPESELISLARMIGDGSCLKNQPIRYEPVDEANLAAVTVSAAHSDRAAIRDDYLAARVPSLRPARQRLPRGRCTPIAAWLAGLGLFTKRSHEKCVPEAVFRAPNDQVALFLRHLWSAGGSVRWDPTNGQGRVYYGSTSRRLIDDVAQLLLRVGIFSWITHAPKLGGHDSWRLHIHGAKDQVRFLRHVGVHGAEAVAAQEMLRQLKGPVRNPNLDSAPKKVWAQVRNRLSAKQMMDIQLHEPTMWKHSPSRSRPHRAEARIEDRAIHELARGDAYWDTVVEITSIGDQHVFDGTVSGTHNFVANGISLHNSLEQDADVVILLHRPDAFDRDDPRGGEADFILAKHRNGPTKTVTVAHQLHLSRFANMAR

[7] = target: Paired box protein Pax-8 (Homo sapiens, UniProt Q06710); experiment: PAX8 transcriptional activity inhibition in RMG-I – RMG-I cells, luciferase, cherry-pick, dose response (AID 687027); format: functional, cell-based;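 further: luciferase reporter driven by Pax8 target thyroperoxidase promoter measured by SteadyGlo luminescence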
[8] = target: T6, Heat shock factor protein 1 (Mus musculus, UniProt P38532); experiment: decrease of HSF1-responsive luciferase luminescence – cell-based, NIH3T3, dose retest, confirmation (AID 2382); format: functional;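 further: NIH3T3 fibroblasts with HSF1-driven luciferase reporter stressed by proteasome inhibitor MG132; luminescence from HSF1-driven luciferase expression after 8 hours of MG132 stress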
T6 sequence (P38532 whole entry): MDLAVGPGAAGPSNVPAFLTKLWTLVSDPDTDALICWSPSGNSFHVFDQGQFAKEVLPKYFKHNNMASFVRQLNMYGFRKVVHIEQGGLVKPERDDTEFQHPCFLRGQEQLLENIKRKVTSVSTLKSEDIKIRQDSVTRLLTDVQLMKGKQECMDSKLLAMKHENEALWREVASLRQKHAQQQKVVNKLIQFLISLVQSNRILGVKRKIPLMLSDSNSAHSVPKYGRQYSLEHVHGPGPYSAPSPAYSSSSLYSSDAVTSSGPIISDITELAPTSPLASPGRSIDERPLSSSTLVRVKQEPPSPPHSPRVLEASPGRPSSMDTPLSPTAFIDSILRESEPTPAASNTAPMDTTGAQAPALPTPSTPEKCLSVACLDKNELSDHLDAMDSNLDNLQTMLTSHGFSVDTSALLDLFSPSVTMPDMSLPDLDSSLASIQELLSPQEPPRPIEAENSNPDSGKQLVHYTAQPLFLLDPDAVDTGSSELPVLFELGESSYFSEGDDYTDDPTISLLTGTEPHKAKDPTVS

[9] = Trypanosoma cruzi growth suppression in host cells – NIH3T3 host cells, beta-gal luminescence, confirmation (AID 2044); format: functional, cell-based;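 further: intracellular parasites grown in NIH/3T3 mouse fibroblasts as host cells; luminescent beta-galactosidase reporter signal from transgenic T. cruzi replicating inside host cells; inhibitors lower the luminescence signal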
[10] = NIH3T3 cell viability loss – ATP luminescence, mouse fibroblasts, counter-screen, dose response (AID 2010); format: functional, cell-based;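 further: cells exposed to compound for about 90 hours before reading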

Chain of Paired box protein Pax-8 (Q06710 whole entry): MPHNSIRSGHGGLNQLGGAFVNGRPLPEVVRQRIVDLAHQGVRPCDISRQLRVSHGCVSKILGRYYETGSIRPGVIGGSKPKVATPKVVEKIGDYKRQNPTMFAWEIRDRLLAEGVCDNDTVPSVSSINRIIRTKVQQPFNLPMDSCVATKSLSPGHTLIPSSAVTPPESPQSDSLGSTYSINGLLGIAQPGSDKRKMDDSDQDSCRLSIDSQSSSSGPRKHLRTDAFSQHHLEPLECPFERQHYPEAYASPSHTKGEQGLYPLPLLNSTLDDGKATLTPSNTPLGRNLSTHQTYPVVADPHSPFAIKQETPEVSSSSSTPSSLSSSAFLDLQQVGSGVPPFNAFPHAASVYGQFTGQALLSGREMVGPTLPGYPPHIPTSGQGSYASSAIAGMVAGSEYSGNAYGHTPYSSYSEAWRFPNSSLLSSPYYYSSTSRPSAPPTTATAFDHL

Row | Compound | IC50 [1] | EC50 [2] | EC50 [5] | also measured
1 | O=C(Nc1ccccc1)c1nc[nH]c1C(=O)NCCN(CCNC(=O)c1[nH]cnc1C(=O)Nc1ccccc1)CCNC(=O)c1[nH]cnc1C(=O)Nc1ccccc1 | > 47.1 µM (inactive) | > 53 µM (inactive) | – | –
2 | CCCOc1ccc(/C=c2\sc3nc(-c4ccco4)nn3c2=O)cc1OCC | – | – | – | EC50 [3]: > 300 µM (not active); EC50 [4]: > 300 µM (not active)
3 | CCCCCCCOC(=O)c1ccc(OC(=O)c2cccnc2)cc1 | – | – | > 380 µM (inconclusive) | –
4 | CCN(CC)C(=O)c1ccc2c(c1[N+](=O)[O-])C(=O)c1ccccc1C2=O | – | – | > 380 µM (inactive) | AC50 [6]: > 380 µM (inactive)
5 | C[C@@H]1CCCCO[C@@H](CN(C)Cc2ccc(Cl)c(Cl)c2)[C@H](C)CN([C@H](C)CO)C(=O)c2cc(NC(=O)Nc3ccccc3)ccc2O1 | – | – | – | AC50 [7]: 12.5 µM (active)
6 | COc1ccccc1C(=O)NC(CCSC)C(=O)NC1CCCCCC1 (stereo not drawn) | > 47.1 µM (inactive) | > 53 µM (inactive) | – | –
7 | CCOC(=O)c1c2ccc(OCC(=O)N/N=C/c3ccc(Cl)cc3)cc2n2ccccc12 | – | – | – | EC50 [3]: > 300 µM (not active)
8 | COC(=O)c1nnc(NC(=O)c2ccc(C(C)(C)C)cc2)[nH]1 | – | – | 10.1 µM (active) | EC50 [8]: > 195 µM (not active); AC50 [6]: 3.57 µM (active)
9 | CC(=O)N(C)Cc1ccc(C(=O)CCl)cc1 | – | – | 19.4 µM (active) | EC50 [9]: 2.51 µM (active); EC50 [10]: 3.7 µM (active); AC50 [6]: 56.2 µM (active)
10 | Cn1c(SCC(=O)c2ccc3c(c2)OCCO3)nnc1C(F)(F)F | > 47.1 µM (inactive) | > 53 µM (inactive) | – | –
11 | CCOc1ccc(C(=O)NNC(=O)CCNC(=O)c2ccco2)cc1OC | > 47.1 µM (inactive) | > 53 µM (inactive) | – | –
12 | COc1ccc(S(=O)(=O)N(C)C[C@H]2Oc3ccc(NC(=O)Nc4ccc(C(F)(F)F)cc4)cc3C(=O)N([C@H](C)CO)C[C@@H]2C)cc1 | – | – | – | AC50 [7]: 8.69 µM (active)
13 | CC(=O)c1ccc(N2CCN(C(=O)CCS(=O)(=O)c3ccc4c(c3)CCN4C(C)=O)CC2)cc1 | > 47.1 µM (inactive) | > 53 µM (inactive) | – | –
14 | C[C@H](CO)N1C[C@H](C)[C@H](CN(C)S(=O)(=O)c2ccc(Cl)cc2)OCCCC[C@H](C)Oc2ccc(NS(=O)(=O)c3ccc(F)cc3)cc2C1=O | – | – | – | AC50 [7]: 9.43 µM (active)
15 | O=c1ccc2cc(S(=O)(=O)NCc3ccccc3)ccc2[nH]1 | > 47.1 µM (inactive) | > 53 µM (inactive) | – | –
16 | C#CCNC(=O)C1=C[C@H](c2ccc3c(c2)OCO3)[C@@H](CCCO)[C@H](OCC)O1 | > 47.1 µM (inactive) | > 53 µM (inactive) | – | –
17 | Cc1noc(C)c1COC(=O)Cc1ccc(Br)cc1 | – | – | > 380 µM (inactive) | AC50 [6]: 124 µM (active)
18 | Cc1cc2c(NS(=O)(=O)c3ccc(F)cc3)cccc2nn1 | > 47.1 µM (inactive) | > 53 µM (inactive) | – | –
19 | CCOC(=O)CSc1nnc(NCC(=O)OC(C)C)c(=O)[nH]1 | – | – | 9.44 µM (active) | AC50 [6]: 3.45 µM (active)
20 | Cc1ccc2nc(N3C(=O)C(O)=C(C(=O)c4ccc(C)o4)C3c3cccc(O)c3)sc2c1 (stereo not drawn) | 7.83 µM (active) | > 53 µM (inactive) | – | –
